{"source": "patent US10449245B2", "about": "(priority 2014, dated 2019)", "key": {"[1]": {"test_system": "HIV-1", "test": "HIV transcription as cell-associated unspliced HIV-1 RNA in CD4+ T cells (digital droplet PCR), REDUC Part A", "type": "in vivo, human", "details": "for CA US HIV RNA: individual subjects 1101, 1102, 1103, 1105, 1106, 1107 = c1-c6; for CA US HIV RNA / CA US HIV RNA, Mean: romidepsin 5 mg/m^2 i.v. days 0, 7, 14; for CA US HIV RNA, Mean: mean of subjects", "procedure": "Part A of the clinical study contained three phases. […] Second, a viral reactivation phase of 3 weeks (visit 2 to visit 7) consisting of one cycle of romidepsin infusions at a dosing of 5 mg/m^2 administered intravenously over a 4 hour period. De-escalation down to 2.5 mg/m^2 was planned in case of dose-limiting toxicity was observed. Romidepsin was infused on days 0, 7, and 14. Third, a post-activation phase of ˜9 weeks (visit 8 to visit 11) to assess the effect of romidepsin on the size of latent HIV-1I reservoir.\nHIV transcription was measured as copies of cell-associated unspliced HIV-1 RNA/106 CD4+ T cells using digital droplet PCR. CD4+ T-cells were isolated from PBMCs using Miltenyi Biotec negative bead separation kit (CD4 T cell isolation, #130-096-533) as described with LD separation columns, lysed (Lysis buffer from Qiagen DNA/RNA extraction kit), and stored ad −80° C. until extraction of RNA and DNA (Allprep isolation kit, Qiagen). Reverse transcription, amplification and quantitation of cell-associated unspliced HIV RNA from HIV patients was performed as follows. In summary, HIV unspliced RNA was detected on the BioRad QX100 droplet digital platform using a defined primer/probe set and related to total cell input by quantitation of the IPO8 (Importin 8) and TBP (Tata Binding Protein) gene transcription. A mixture of 11.5 μl patient extracted mRNA in nuclease-free dH, 1 μl 10 mM dNTP U1240 (Promega), 0.5 μl 3 μg/μl Random hexamers (Applied Biosystems) and 0.5 μl of 0.5 μg/μl Oligo(dT)12-18 Primer (Invitrogen) was prepared, incubated at 65° C. for 5 min, and then immediately on ice for 5 min. First-strand cDNA production was performed by adding a mixture of 4.0 μl 5× First Strand Buffer (Invitrogen), 1.0 μl 0.1M DTT (Invitrogen), 0.5 μl RNAseOUT RNAse inhibitor (40 U/μl, Invitrogen), 1.0 μl Superscript III Reverse Transcriptase (200 U/μl, Invitrogen) for a total reaction volume of 20 μl and incubating at 42° C. for 45 min, then 80° C. for 15 min in a PCR machine. The reaction was held at 4° C. or on ice until performing the downstream assay. […] To adjust for the total cellular input in each sample, relative copy numbers were normalized to two human endogenous control genes TBP PL (VIC) assay ID: Hs00183533_m1 and IPO8 (FAM) assay ID: Hs00427620_m1 (TaqMan gene expression assay, LifeTechnologies, Denmark). All HIV RT samples were run in six replicates while the reference genes were assayed in duplicate. The PCR reaction mixture was loaded into the BioRad QX-100 emulsification device fractionating each sample into 20,000 nanoliter-sized droplets following the manufacturer's instructions. PCR cycling conditions were as follows: 95° C. for 10 min, followed by 40 cycles of a 30 second denaturation at 95° C. followed by a 59° C. extension for 60 seconds and a final 10 minutes at 98° C. After cycling droplets were subsequently read automatically by the QX100 droplet reader (BioRad) and the data was analyzed with the QuantaSoft™ analysis software (BioRad)."}, "[2]": {"test_system": "latently infected cell lines and primary T cells", "details": "cited from earlier work"}, "[3]": {"details": "visit 1 (day −21, pre-treatment)"}, "[4]": {"details": "visit 2A (day 0, pre-treatment)"}}, "note": "Values joined by “and” are separate entries in the source; they are usually repeats but may differ in a detail not shown here. Equal values may be shown once.", "data": [{"smiles": "C/C=C1\\NC(=O)[C@H]2CSSCC/C=C/[C@H](CC(=O)N[C@H](C(C)C)C(=O)N2)OC(=O)[C@H](C(C)C)NC1=O", "note": "[romidepsin, (1S,4S,7Z,10S,16E,21R)-7-ethylidene-4,21-bis(1-methylethyl)-2-oxa-12,13-dithia-5,8,20,23-tetraazabicyclo[8.7.6]tricos-16-ene-3,6,9,19,22-pentone]", "values": [{"measurement": "HIV reactivation", "setting": "[1]; 5 mg/m^2 romidepsin, patients on cART", "result": "successfully able to reactivate HIV in 6 patients"}, {"measurement": "HIV-1 transcription (cell-associated un-spliced HIV-1 RNA), fold range increase from baseline", "setting": "[1]; after third infusion, p=0.03, Wilcoxon", "result": "2.4-5.0 fold"}, {"measurement": "cell-associated un-spliced HIV RNA, change", "setting": "[1]; as a result of romidepsin infusion", "result": "significantly increased"}, {"measurement": "CA US HIV RNA", "setting": "[1]; [3]", "result": "5.4 HIV RNA copies/10^6 CD4+ T cel and 19.7 HIV RNA copies/10^6 CD4+ T cel and 9.7 HIV RNA copies/10^6 CD4+ T cel and 4.8 HIV RNA copies/10^6 CD4+ T cel and 15.9 HIV RNA copies/10^6 CD4+ T cel and 8.7 HIV RNA copies/10^6 CD4+ T cel"}, {"measurement": "CA US HIV RNA, Mean", "setting": "[1]; [3]", "result": "10.7 HIV RNA copies/10^6 CD4+ T cel"}, {"measurement": "CA US HIV RNA", "setting": "[1]; [4]", "result": "13.3 HIV RNA copies/10^6 CD4+ T cel and 16.8 HIV RNA copies/10^6 CD4+ T cel and 7.4 HIV RNA copies/10^6 CD4+ T cel and 14.5 HIV RNA copies/10^6 CD4+ T cel and 4.5 HIV RNA copies/10^6 CD4+ T cel"}, {"measurement": "CA US HIV RNA, Mean", "setting": "[1]; [4]", "result": "11.3 HIV RNA copies/10^6 CD4+ T cel"}, {"measurement": "CA US HIV RNA", "setting": "[1]; visit 2B (day 0 + 4 h)", "result": "23.0 HIV RNA copies/10^6 CD4+ T cel and 21.7 HIV RNA copies/10^6 CD4+ T cel and 15.7 HIV RNA copies/10^6 CD4+ T cel and 6.2 HIV RNA copies/10^6 CD4+ T cel and 18.7 HIV RNA copies/10^6 CD4+ T cel and 7.6 HIV RNA copies/10^6 CD4+ T cel"}, {"measurement": "CA US HIV RNA, Mean", "setting": "[1]; visit 2B (day 0 + 4 h)", "result": "15.5 HIV RNA copies/10^6 CD4+ T cel"}, {"measurement": "CA US HIV RNA", "setting": "[1]; visit 3 (day 1)", "result": "16.7 HIV RNA copies/10^6 CD4+ T cel and 33.8 HIV RNA copies/10^6 CD4+ T cel and 9.5 HIV RNA copies/10^6 CD4+ T cel and 7.3 HIV RNA copies/10^6 CD4+ T cel and 29.4 HIV RNA copies/10^6 CD4+ T cel and 10.3 HIV RNA copies/10^6 CD4+ T cel"}, {"measurement": "CA US HIV RNA, Mean", "setting": "[1]; visit 3 (day 1)", "result": "17.8 HIV RNA copies/10^6 CD4+ T cel"}, {"measurement": "CA US HIV RNA", "setting": "[1]; visit 4 (day 3)", "result": "26.4 HIV RNA copies/10^6 CD4+ T cel and 36.2 HIV RNA copies/10^6 CD4+ T cel and 7.5 HIV RNA copies/10^6 CD4+ T cel and 6.8 HIV RNA copies/10^6 CD4+ T cel and 12.1 HIV RNA copies/10^6 CD4+ T cel and 6.6 HIV RNA copies/10^6 CD4+ T cel"}, {"measurement": "CA US HIV RNA, Mean", "setting": "[1]; visit 4 (day 3)", "result": "15.9 HIV RNA copies/10^6 CD4+ T cel"}, {"measurement": "CA US HIV RNA", "setting": "[1]; visit 5A (day 7)", "result": "12.5 HIV RNA copies/10^6 CD4+ T cel and 13.7 HIV RNA copies/10^6 CD4+ T cel and 11.3 HIV RNA copies/10^6 CD4+ T cel and 7.6 HIV RNA copies/10^6 CD4+ T cel and 18.9 HIV RNA copies/10^6 CD4+ T cel and 6.6 HIV RNA copies/10^6 CD4+ T cel"}, {"measurement": "CA US HIV RNA, Mean", "setting": "[1]; visit 5A (day 7)", "result": "11.8 HIV RNA copies/10^6 CD4+ T cel"}, {"measurement": "CA US HIV RNA", "setting": "[1]; visit 5B (day 7 + 4 h)", "result": "33.7 HIV RNA copies/10^6 CD4+ T cel and 43.3 HIV RNA copies/10^6 CD4+ T cel and 24.8 HIV RNA copies/10^6 CD4+ T cel and 24.0 HIV RNA copies/10^6 CD4+ T cel and 45.2 HIV RNA copies/10^6 CD4+ T cel"}, {"measurement": "CA US HIV RNA, Mean", "setting": "[1]; visit 5B (day 7 + 4 h)", "result": "34.2 HIV RNA copies/10^6 CD4+ T cel"}, {"measurement": "CA US HIV RNA", "setting": "[1]; visit 6 (day 10)", "result": "21.3 HIV RNA copies/10^6 CD4+ T cel and 29.0 HIV RNA copies/10^6 CD4+ T cel and 10.4 HIV RNA copies/10^6 CD4+ T cel and 9.1 HIV RNA copies/10^6 CD4+ T cel and 14.4 HIV RNA copies/10^6 CD4+ T cel and 7.9 HIV RNA copies/10^6 CD4+ T cel"}, {"measurement": "CA US HIV RNA, Mean", "setting": "[1]; visit 6 (day 10)", "result": "15.3 HIV RNA copies/10^6 CD4+ T cel"}, {"measurement": "CA US HIV RNA", "setting": "[1]; visit 7A (day 14)", "result": "13.3 HIV RNA copies/10^6 CD4+ T cel and 24.2 HIV RNA copies/10^6 CD4+ T cel and 9.9 HIV RNA copies/10^6 CD4+ T cel and 6.0 HIV RNA copies/10^6 CD4+ T cel and 18.1 HIV RNA copies/10^6 CD4+ T cel"}, {"measurement": "CA US HIV RNA, Mean", "setting": "[1]; visit 7A (day 14)", "result": "14.3 HIV RNA copies/10^6 CD4+ T cel"}, {"measurement": "CA US HIV RNA", "setting": "[1]; visit 7B (day 14 + 4 h)", "result": "36.5 HIV RNA copies/10^6 CD4+ T cel and 51.9 HIV RNA copies/10^6 CD4+ T cel and 21.0 HIV RNA copies/10^6 CD4+ T cel and 76.0 HIV RNA copies/10^6 CD4+ T cel and 20.5 HIV RNA copies/10^6 CD4+ T cel"}, {"measurement": "CA US HIV RNA, Mean", "setting": "[1]; visit 7B (day 14 + 4 h)", "result": "41.2 HIV RNA copies/10^6 CD4+ T cel"}, {"measurement": "CA US HIV RNA", "setting": "[1]; visit 8 (day 17)", "result": "17.4 HIV RNA copies/10^6 CD4+ T cel and 17.8 HIV RNA copies/10^6 CD4+ T cel and 4.2 HIV RNA copies/10^6 CD4+ T cel and 14.9 HIV RNA copies/10^6 CD4+ T cel and 8.9 HIV RNA copies/10^6 CD4+ T cel"}, {"measurement": "CA US HIV RNA, Mean", "setting": "[1]; visit 8 (day 17)", "result": "12.7 HIV RNA copies/10^6 CD4+ T cel"}, {"measurement": "CA US HIV RNA", "setting": "[1]; visit 9 (day 21)", "result": "16.4 HIV RNA copies/10^6 CD4+ T cel and 19.0 HIV RNA copies/10^6 CD4+ T cel and 4.6 HIV RNA copies/10^6 CD4+ T cel and 5.2 HIV RNA copies/10^6 CD4+ T cel and 11.1 HIV RNA copies/10^6 CD4+ T cel"}, {"measurement": "CA US HIV RNA, Mean", "setting": "[1]; visit 9 (day 21)", "result": "11.3 HIV RNA copies/10^6 CD4+ T cel"}, {"measurement": "CA US HIV RNA", "setting": "[1]; visit 10 (day 56)", "result": "17.9 HIV RNA copies/10^6 CD4+ T cel and 25.0 HIV RNA copies/10^6 CD4+ T cel and 7.6 HIV RNA copies/10^6 CD4+ T cel and 6.2 HIV RNA copies/10^6 CD4+ T cel and 16.8 HIV RNA copies/10^6 CD4+ T cel and 9.3 HIV RNA copies/10^6 CD4+ T cel"}, {"measurement": "CA US HIV RNA, Mean", "setting": "[1]; visit 10 (day 56)", "result": "13.8 HIV RNA copies/10^6 CD4+ T cel"}, {"measurement": "CA US HIV RNA", "setting": "[1]; visit 11 (day 84)", "result": "22.0 HIV RNA copies/10^6 CD4+ T cel and 32.7 HIV RNA copies/10^6 CD4+ T cel and 11.2 HIV RNA copies/10^6 CD4+ T cel and 8.0 HIV RNA copies/10^6 CD4+ T cel and 35.1 HIV RNA copies/10^6 CD4+ T cel and 12.2 HIV RNA copies/10^6 CD4+ T cel"}, {"measurement": "CA US HIV RNA, Mean", "setting": "[1]; visit 11 (day 84)", "result": "20.2 HIV RNA copies/10^6 CD4+ T cel"}, {"measurement": "activation of HIV-1 expression", "setting": "[2]", "result": "potently activates HIV-1 expression"}]}]}
